Data as given in PubChem BioAssay AID248 (DTP/NCI, 2004).
Values joined by “and” are separate entries in the source; they are usually repeats but may differ in a detail not shown here. Identical values can stand only once. Toxic doses and inconclusive results are not listed. Cut-off read from the data, not from the text of the source: active = T/C of 150% or more; inactive = T/C below 125%.

Tested on: L1210 leukemia ip in BDF1 mice, survival T/C
Test: NCI In Vivo Anticancer Drug Screen. Data for tumor model L1210 Leukemia (intraperitoneal) in B6D2F1 (BDF1) mice
Settings: endpoint: mean survival time, higher = longer survival
Summary of the method: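 In this screen, tumor-bearing mice given compound are compared to those given vehicle, and their survival values are reported as a treated-to-control quotient.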

[1] = dose: 100.0 mg/kg/injection, schedule: Q04DX002 (ip), vehicle: Klucel (hydroxypropylcellulose) (HPC)
[2] = dose: 200.0 mg/kg/injection, schedule: Q04DX002 (ip), vehicle: Klucel (hydroxypropylcellulose) (HPC)
[3] = dose: 100.0 mg/kg/injection, schedule: Q01DX001 (ip), vehicle: saline
[4] = dose: 200.0 mg/kg/injection, schedule: Q01DX001 (ip), vehicle: saline
[5] = dose: 400.0 mg/kg/injection, schedule: Q01DX001 (ip), vehicle: saline
[6] = dose: 50.0 mg/kg/injection, schedule: Q01DX001 (ip), vehicle: saline

Measured: T/C

NC1CCCCC1.[O]=[Cr](=[O])([OH])[OH]
inactive: dose: 12.5 mg/kg/injection, schedule: Q01DX009 (ip), vehicle: saline sonified 100 % of control | dose: 25.0 mg/kg/injection, schedule: Q01DX009 (ip), vehicle: saline sonified 109 % of control | dose: 50.0 mg/kg/injection, schedule: Q04DX003 (ip), vehicle: Klucel (hydroxypropylcellulose) (HPC) 102 % of control | dose: 75.0 mg/kg/injection, schedule: Q01DX001 (ip), vehicle: saline 98 % of control

COc1cc(N(CCCl)CCCl)ccc1C=Nc1ccc2c(c1)ncn2C
inactive: dose: 75.0 mg/kg/injection, schedule: Q04DX002 (ip), vehicle: Klucel (hydroxypropylcellulose) (HPC) 112 % of control | dose: 150.0 mg/kg/injection, schedule: Q04DX002 (ip), vehicle: Klucel (hydroxypropylcellulose) (HPC) 101 % of control | dose: 300.0 mg/kg/injection, schedule: Q04DX002 (ip), vehicle: Klucel (hydroxypropylcellulose) (HPC) 108 % of control

O=C1NNC(=O)C2C3CCC(C3)C12 (configuration not stated)
inactive: dose: 50.0 mg/kg/injection, schedule: Q01DX009 (ip), vehicle: saline 98 % of control

Cc1n(C(C)C)c2c([n+]1C)C(=O)c1ccccc1C2=O
inactive: dose: 0.39 mg/kg/injection, schedule: Q01DX009 (ip), vehicle: saline 106 % of control | dose: 0.78 mg/kg/injection, schedule: Q01DX009 (ip), vehicle: saline 98 % of control | dose: 1.56 mg/kg/injection, schedule: Q01DX009 (ip), vehicle: saline 101 % of control | dose: 1.56 mg/kg/injection, schedule: Q04DX003 (ip), vehicle: acetone 95 % of control | dose: 2.33 mg/kg/injection, schedule: Q01DX009 (ip), vehicle: acetone 88 % of control | dose: 3.54 mg/kg/injection, schedule: Q01DX009 (ip), vehicle: acetone 92 % of control

CSC(C#N)NC(=O)c1ccc([N+](=O)[O-])cc1 (configuration not stated)
inactive: dose: 50.0 mg/kg/injection, schedule: Q04DX002 (ip), vehicle: Klucel (hydroxypropylcellulose) (HPC) 98 % of control | [1] 97 % of control and 109 % of control | [2] 98 % of control and 109 % of control

CC(=O)Oc1ccc(C2(c3ccc(OC(C)=O)cc3)C(=O)Nc3ccccc32)cc1
inactive: [3] 91 % of control | dose: 100.0 mg/kg/injection, schedule: Q01DX009 (ip), vehicle: Klucel (hydroxypropylcellulose) (HPC) 103 % of control | [4] 92 % of control | dose: 200.0 mg/kg/injection, schedule: Q01DX009 (ip), vehicle: Klucel (hydroxypropylcellulose) (HPC) 97 % of control | [5] 87 % of control | dose: 400.0 mg/kg/injection, schedule: Q01DX009 (ip), vehicle: Klucel (hydroxypropylcellulose) (HPC) 104 % of control

CC(C)CCNC(=O)NS(=O)(=O)c1ccc(Cl)cc1
inactive: dose: 100.0 mg/kg/injection, schedule: Q04DX003 (ip), vehicle: saline with Tween-80 107 % of control | dose: 200.0 mg/kg/injection, schedule: Q04DX003 (ip), vehicle: saline with Tween-80 97 % of control | dose: 400.0 mg/kg/injection, schedule: Q04DX003 (ip), vehicle: saline with Tween-80 100 % of control

CSc1nc(-c2ccc([N+](=O)[O-])cc2)oc1/N=C/c1ccc([N+](=O)[O-])cc1
inactive: [1] 96 % of control | [2] 96 % of control | dose: 400.0 mg/kg/injection, schedule: Q04DX002 (ip), vehicle: Klucel (hydroxypropylcellulose) (HPC) 96 % of control

OCCCc1ccccc1O
inactive: [6] 102 % of control | [3] 102 % of control | [4] 94 % of control | [5] 91 % of control

N=C(N)S/C=C(/F)C(F)(F)CBr
inactive: [6] 95 % of control | [3] 101 % of control | [4] 113 % of control | [5] 101 % of control
